Measurements taken from patent publication US6946458B2, “N-thiolated beta-lactams: novel antibacterial agents for methicillin-resistant Staphylococcus aureus” (University of South Florida, priority 1999, dated 2005).
Read-outs that look alike come from different tables or passages of the source.

What was measured:
Assay in all cases: Kirby-Bauer agar disk diffusion
MRSA USF656 = format: cell-based, Staphylococcus aureus; design: Kirby-Bauer Disc Diffusion Test Results: unit not given here; details: for zone of inhibition at 20 µg/disc: Staphylococcus aureus, MRSA
Method in brief: (§1)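 Test compound (20 μg) was impregnated onto 6-mm disks, air-dried and placed on agar plates inoculated with the β-lactamase-producing MRSA strain. After 24 h the diameter of the growth-inhibition zone was measured in mm. Reported values are triplicate means.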

MRSA USF653 = format: cell-based, Staphylococcus aureus; design: Kirby-Bauer Disc Diffusion Test Results: unit not given here; details: for zone of inhibition at 20 µg/disc: Staphylococcus aureus, MRSA
Method in brief: as §1

MRSA USF659 = format: cell-based, Staphylococcus aureus; design: Kirby-Bauer Disc Diffusion Test Results: unit not given here; details: for zone of inhibition at 20 µg/disc: Staphylococcus aureus, MRSA
Method in brief: as §1

MRSA USF655 = format: cell-based, Staphylococcus aureus; design: Kirby-Bauer Disc Diffusion Test Results: unit not given here; details: for zone of inhibition at 20 µg/disc: Staphylococcus aureus, MRSA
Method in brief: as §1

MRSA USF654 = format: cell-based, Staphylococcus aureus; design: Kirby-Bauer Disc Diffusion Test Results: unit not given here; details: for zone of inhibition at 20 µg/disc: Staphylococcus aureus, MRSA
Method in brief: as §1

S. simulans (ATCC 11631) = format: cell-based, Staphylococcus simulans; details: 6-mm disks, 20 μg test compound
Method in brief: (§2)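 Agar disk diffusion used 6-mm air-dried disks carrying 20 μg of compound. Values are mean diameters (mm) of the growth-inhibition zone at 24 h, from triplicate experiments. S. epidermidis and S. simulans were clinical isolates.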

Staph aureus 525 = format: cell-based, Staphylococcus aureus
[1] = tested on: Staphylococcus epidermidis; format: cell-based; details: 6-mm disks, 20 μg test compound
Method in brief: as §2

[2] = tested on: Staphylococcus aureus (ATCC 25923); format: cell-based; details: 6-mm disks, 20 μg test compound
Method in brief: as §2

Micrococcus luteus = format: cell-based; details: 6-mm disks, 20 μg test compound
Method in brief: as §2

[3] = Table 1, 6-mm disks, 20 μg test compound, 24 h, triplicate, read-out: zone of growth inhibition, average diameter
[4] = Table 4, 20 μg disk loading, read-out: Zones of Inhibition
[5] = Table 6, 20 μg disk loading, read-out: The Zone of Inhibition
[6] = Table 3, 6-mm disks, 20 μg test compound, 24 hours
[7] = Table 5, beta-lactamase producing strain

SMILES: CC1(C)S[C@@H]2[C@H](NC(=O)Cc3ccccc3)C(=O)N2[C@H]1C(=O)O [PenG, penicillin G, reference compound]
- zone of inhibition at 20 µg/disc (MRSA USF656; [3]): 12 mm
- zone of inhibition at 20 µg/disc (MRSA USF656; [4]): 12 mm
- zone of inhibition at 20 µg/disc (MRSA USF656; [5]): 10 mm
- zone of growth inhibition, average diameter (MRSA USF656; [6]): 12 mm
- Kirby-Bauer Disc Diffusion Test Results (MRSA USF656; [7]): 10
- zone of inhibition at 20 µg/disc (MRSA USF653; [3]): 16 mm
- zone of inhibition at 20 µg/disc (MRSA USF653; [4]): 15 mm
- zone of inhibition at 20 µg/disc (MRSA USF653; [5]): 15 mm
- zone of growth inhibition, average diameter (MRSA USF653; [6]): 16 mm
- Kirby-Bauer Disc Diffusion Test Results (MRSA USF653; [7]): 15
- zone of inhibition at 20 µg/disc (MRSA USF659; [3]): 15 mm
- zone of inhibition at 20 µg/disc (MRSA USF659; [4]): 15 mm
- zone of inhibition at 20 µg/disc (MRSA USF659; [5]): 16 mm
- zone of growth inhibition, average diameter (MRSA USF659; [6]): 15 mm
- Kirby-Bauer Disc Diffusion Test Results (MRSA USF659; [7]): 16
- zone of inhibition at 20 µg/disc (MRSA USF655; [3]): 14 mm
- zone of inhibition at 20 µg/disc (MRSA USF655; [4]): 14 mm
- zone of inhibition at 20 µg/disc (MRSA USF655; [5]): 13 mm
- zone of growth inhibition, average diameter (MRSA USF655; [6]): 14 mm
- Kirby-Bauer Disc Diffusion Test Results (MRSA USF655; Table 5): 13
- zone of inhibition at 20 µg/disc (MRSA USF654; [3]): 10 mm
- zone of inhibition at 20 µg/disc (MRSA USF654; [4]): 9 mm
- zone of inhibition at 20 µg/disc (MRSA USF654; [5]): 9 mm
- zone of growth inhibition, average diameter (MRSA USF654; [6]): 10 mm
- Kirby-Bauer Disc Diffusion Test Results (MRSA USF654; [7]): 10
- zone of inhibition at 20 µg/disc (S. simulans (ATCC 11631); Staphylococcus simulans, ATCC11631, Table 1, 24 h, triplicate, read-out: zone of growth inhibition, average diameter): 13 mm
- zone of growth inhibition, average diameter (S. simulans (ATCC 11631); Table 3, 24 hours): 13 mm
- zone of inhibition at 20 µg/disc (Staph aureus 525; Staphylococcus aureus, 525, Table 4, 20 μg disk loading, read-out: Zones of Inhibition): 33 mm
- Kirby-Bauer Disc Diffusion Test Results (Staph aureus 525; Table 5): 33
- zone of inhibition at 20 µg/disc ([1]; Staphylococcus epidermidis, Table 1, 24 h, triplicate, read-out: zone of growth inhibition, average diameter): 50 mm
- zone of growth inhibition, average diameter ([1]; Table 3, 24 hours): 50 mm
- zone of inhibition at 20 µg/disc ([2]; Staphylococcus aureus, ATCC25923, Table 1, 24 h, triplicate, read-out: zone of growth inhibition, average diameter): 34 mm
- zone of growth inhibition, average diameter ([2]; Table 3, 24 hours): 34 mm
- zone of inhibition at 20 µg/disc (Micrococcus luteus; Micrococcus luteus, Table 1, 24 h, triplicate, read-out: zone of growth inhibition, average diameter): 40 mm
- zone of growth inhibition, average diameter (Micrococcus luteus; Table 3, 24 hours): 40 mm
